Data reported in patent US8329705B2, “Substituted triazolo-pyrazine compounds” (ArQule, Inc., priority 2009, dated 2012).

What was measured:
[1] = system: MDA-MB-231 cancer cells; experiment: MTS assay, MDA-MB-231 cells; assay type: cell-based; design: concentration or dose not given beside the values
Method: (§1) Cells were maintained at 37° C., 5% CO2 in DMEM media supplemented with 1% fetal bovine serum, penicillin/streptomycin and fungizone (Invitrogen). Cells were seeded into 96-well tissue culture plates at 3000 per well and cultured at 37° C. for 18 hours. Test compounds were dissolved and diluted to 300× in DMSO then diluted 1:40 in DMEM. Cells were incubated with test compounds for 72 hours followed by incubation with tetrazolium compound (3-(4,5-dimethylthiazol-2-yl)-5-(3-carboxymethoxyphenyl)-2-(4-sulfophenyl)-2H-tetrazolium, inner salt; MTS) and the electron coupling reagent, phenazine methosulfate (PMS) for 4 hours. […] The ability of compounds to inhibit cell growth in this assay is correlated with the reduction of dehydrogenase enzyme activity found in metabolically active cells. The measurement of the absorbance of the formazan was assessed using a Victor (Perkin Elmer) microplate reader at 492 nm. The calculated IC50 value is the concentration of the test compound that causes a 50% decrease in the absorbance. Percent inhibition by representative compounds of the present invention in MDA-MB231 and DLD-1 cancer cells is shown in Table 4.

[2] = system: DLD-1 cancer cells; experiment: MTS assay, DLD-1 cells; assay type: cell-based; design: concentration or dose not given beside the values
Method: as §1

[3] = biological target: T1, FGFR2 (N549H) (Homo sapiens, UniProt P21802, N549H); experiment: FGFR2 kinase activity assay (fluorescent ELISA); assay type: biochemical; conditions: 30 μM compound
T1 construct: purchased Millipore 14-742
Method: A fluorescent ELISA assay was developed to identify and characterize inhibitors of FGFR2 kinase. This heterogeneous assay utilized a biotinylated peptide with a tyrosine motif as a substrate and an anti-phospho-tyrosine antibody to measure phosphorylation of the substrate. The reaction was initiated by adding a test compound, 37 uM Pyk2 substrate (Midwest Biotech, cat. #MBT2383), 12.5 uM ATP (Roche, cat. #11 140 965 001), and 0.5 uM FGFR2 enzyme (Millipore, cat. #14-742) sequentially to a non-binding polypropylene V-well plate. All reagents were in assay buffer consisting of: 50 mM Tris-HCL, 0.02 mg/mL BSA, 10 mM MgCl2, 0.1 mM Na3VO4, 1 mM EGTA, […], 0.01% NP-40, 2 mM DTT, 10% Glycerol. The reaction was incubated for 60 minutes. As the reaction proceeded, FGFR2 phosphorylated tyrosines in the peptide. The reaction mixture was then moved to a blocked streptavidin coated Nunc Maxisorb plate (coated with 100 ng streptavidin from Pierce (cat #15-124) per well) allowing for the capture of the biotinylated peptide. Peptide was captured for 30 minutes at room temperature, the phosphorylation of peptide continues during this phase. The reaction was stopped by washing the Streptavidin plate 6 times with TBST. Phosphorylated peptide was detected by adding anti-phospho tyrosine antibody (purchased from Cell Signaling, cat. #9411, diluted 1:3000), unbound antibody was removed by washing 6 times with TBST. Secondary detection was performed using Alkaline Phosphatase tagged goat anti-mouse antibody (purchased from Pierce, cat. #31320, diluted 1:4000) for one hour. Unbound secondary antibody was removed by washing 6 times with TBST.
The fluorescent readout was initiated by the addition of Promega Attophos substrate (purchased from Promega; Kit catalog number: S1000, dilution=6 mg/10 mL), which when dephosphorylated by Alkaline phosphatase emitted a fluorescent signal of […] when excited by a signal […]. This reading was done on the Perkin Elmer Envision system. […] The signal was directly proportional to the activity of FGFR2 and compound inhibition of FGFR2 was monitored by a decrease in signal.

T1 sequence (P21802 22-821 N549H): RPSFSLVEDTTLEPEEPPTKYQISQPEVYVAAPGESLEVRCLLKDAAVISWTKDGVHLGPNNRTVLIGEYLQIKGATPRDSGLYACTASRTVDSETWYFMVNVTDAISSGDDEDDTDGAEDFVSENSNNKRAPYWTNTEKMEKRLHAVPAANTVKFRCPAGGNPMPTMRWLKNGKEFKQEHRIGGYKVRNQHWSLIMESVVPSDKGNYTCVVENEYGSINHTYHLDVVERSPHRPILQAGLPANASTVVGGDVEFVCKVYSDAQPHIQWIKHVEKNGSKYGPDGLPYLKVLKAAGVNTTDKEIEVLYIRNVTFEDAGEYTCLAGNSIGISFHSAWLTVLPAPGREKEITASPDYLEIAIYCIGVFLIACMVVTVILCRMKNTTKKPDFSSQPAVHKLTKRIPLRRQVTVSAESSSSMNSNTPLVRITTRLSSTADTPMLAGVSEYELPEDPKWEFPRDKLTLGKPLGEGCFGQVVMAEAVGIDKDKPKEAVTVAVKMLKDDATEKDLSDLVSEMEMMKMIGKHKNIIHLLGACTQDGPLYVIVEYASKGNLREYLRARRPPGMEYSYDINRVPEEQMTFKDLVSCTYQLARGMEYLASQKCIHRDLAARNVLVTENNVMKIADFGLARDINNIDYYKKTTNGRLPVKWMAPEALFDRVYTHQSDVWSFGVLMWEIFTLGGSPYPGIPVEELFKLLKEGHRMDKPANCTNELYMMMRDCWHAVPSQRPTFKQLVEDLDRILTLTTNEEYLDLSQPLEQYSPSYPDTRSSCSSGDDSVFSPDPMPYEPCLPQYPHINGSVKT

Row | SMILES | MDA-MB-231, MTS, 72 hours (% inhibition) [1] [%] | DLD-1, MTS, 72 hours (% Inhibition) [2] [%] | inhibition at 30 µM [3] [%]
1 | Nc1nnc2c(NCCc3ccc(Cl)cc3)nccn12 [Compound 115, N^8-[2-(4-chlorophenyl)ethyl][1,2,4]triazolo[4,3-a]pyrazine-3,8-diamine] | 99 | 98 | 71.6
2 | CC(C)OC(=O)Nc1nnc2c(NCc3ccc(C(C)(C)C)cc3)nccn12 [Compound 22, isopropyl {8-[(4-tert-butylbenzyl)amino][1,2,4]triazolo[4,3-a]pyrazin-3-yl}carbamate] | 99 | 98 | 100
3 | COc1ccccc1CCNc1nccn2c(NC(=O)OC(C)C)nnc12 [Compound 58, isopropyl (8-{[2-(2-methoxyphenyl)ethyl]amino}[1,2,4]triazolo[4,3-a]pyrazin-3-yl)carbamate] | 59 | 10 | 80.6
4 | Nc1nnc2c(NCCc3ccc(Oc4ccccc4)cc3)nccn12 [Compound 93, N^8-[2-(4-phenoxyphenyl)ethyl][1,2,4]triazolo[4,3-a]pyrazine-3,8-diamine] | 99 | 98 | 82.9
5 | Cc1ccc(CCNc2nccn3c(N)nnc23)cc1 [Compound 90, N^8-[2-(4-methylphenyl)ethyl][1,2,4]triazolo[4,3-a]pyrazine-3,8-diamine] | 81 | 89 | 60.8
6 | CCN(c1ccccc1C)c1nccn2c(NC(=O)OC(C)C)nnc12 [Compound 63, isopropyl {8-[ethyl(2-methylphenyl)amino][1,2,4]triazolo[4,3-a]pyrazin-3-yl}carbamate] | 76 | 98 | 75.7
